Measurements from patent US5328927A, “Hetercyclic compounds, processes for their preparation and pharmaceutical compositions containing them” (Merck Sharpe & Dohme, Ltd., priority 1992, dated 1994).
Where a name gives a salt, the structure may show the parent alone.

target: human neurokinin-1-receptor (NK1R) (Homo sapiens, UniProt P25103); assay: biochemical; conditions: 125I-SP binding; cloned human NK1R expressed in COS or CHO; 1 hour at 4° C. or room temperature
Sequence (P25103 whole entry): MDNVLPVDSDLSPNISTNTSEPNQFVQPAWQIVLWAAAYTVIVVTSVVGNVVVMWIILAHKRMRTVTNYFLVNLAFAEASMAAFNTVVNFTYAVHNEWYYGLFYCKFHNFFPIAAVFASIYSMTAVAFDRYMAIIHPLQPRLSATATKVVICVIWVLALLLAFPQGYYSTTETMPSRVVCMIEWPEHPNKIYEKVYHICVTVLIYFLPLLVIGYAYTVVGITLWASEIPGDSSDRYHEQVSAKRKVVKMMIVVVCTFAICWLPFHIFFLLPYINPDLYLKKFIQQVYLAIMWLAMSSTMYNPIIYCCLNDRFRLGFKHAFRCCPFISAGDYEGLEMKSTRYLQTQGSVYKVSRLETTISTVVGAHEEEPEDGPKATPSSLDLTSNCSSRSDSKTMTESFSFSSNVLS
Protocol: To express the cloned human neurokinin-1-receptor (NK1R) transiently in COS, the cDNA for the human NK1R was cloned into the expression vector pCDM9 which was derived from pCDM8 (INVITROGEN) by inserting the ampicillin resistance gene (nucleotide 1973 to 2964 from BLUESCRIPT SK+ (trademark, [sequence], La Jolla, Calif., USA)) into the Sac II site. Transfection of 20 ug of the plasmid DNA into 10 million COS cells was achieved by electroporation in 800 μl of transfection buffer (135 mM NaCl, 1.2 mM CaCl2, 1.2 mM MgCl2, 2.4 mM K2 HPO4, 0.6 mM KH2 PO4, 10 mM glucose, 10 mM N-2-hydroxyethyl-piperazine-N'-2-ethane sulphonic acid (HEPES) pH 7.4) at 260 V and 950 μF using the IBI GENEZAPPER (trademark IBI, New Haven, Conn., USA). The cells were incubated in 10% fetal calf serum, 2 mM glutamine, 100 U/ml penicillin-streptomycin, and 90% DMEM media (GIBCO, Grand Island, N.Y., USA) in 5% CO2 at 37° C. for three days before the binding assay.
The binding assay of human NK1R expressed in either COS or CHO cells is based on the use of ^125 I-substance P (^125 I-SP from DU PONT, Boston, Mass.) as a radioactively labeled ligand which competes with unlabeled substance P or any other ligand for binding to the human NK1R. […] In the binding assay, 200 μl of cells were added to a tube containing 20 μl of 1.5 to 2.5 nM of ^125 I-SP and 20 μl of unlabeled substance P or any other test compound. The tubes were incubated at 4° C. or at room temperature for 1 hour with gentle shaking. The bound radioactivity was separated from unbound radioactivity by GF/C filter (BRANDEL, Gaithersburg, Md.) which was pre-wetted with 0.1% polyethylenimine. The filter was washed with 3 ml of wash buffer (50 mM Tris pH 7.5, 5 mM MnCl2, 150 mM NaCl) three times and its radioactivity was determined by gamma counter.

Structure (SMILES) | IC50 [µM]
CC(=O)NC(Cc1ccc(Cl)c(Cl)c1)C(=O)CCc1cc(C(F)(F)F)cc(C(F)(F)F)c1 (stereo not drawn) [Example 15, 2-Acetamido-5-(3,5-bistrifluoromethylphenyl)-1-(3,4-dichlorophenyl)-3-pentanone] | 0.04
CC(=O)NC(Cc1csc2ccccc12)C(O)C=Cc1cc(C(F)(F)F)cc(C(F)(F)F)c1 (single isomer, unassigned) [2 (Isomer A), 2-Acetamido-1-(3-benzo[b]thienyl)-5-(3,5-bistrifluoromethylphenyl)-4-penten-3-ol] | 0.7
O=C(NC(Cc1c[nH]c2ccccc12)C(=O)CCc1cc(C(F)(F)F)cc(C(F)(F)F)c1)c1ccccc1 (stereo not drawn) [Example 13, 2-Benzamido-5-(3,5-bistrifluoromethylphenyl)-1-(3-indolyl)-3-pentanone] | 0.014
NC(Cc1c[nH]c2ccccc12)C(=O)CCc1cc(C(F)(F)F)cc(C(F)(F)F)c1 (stereo not drawn) [Example 11, 2-Amino-5-(3,5-bistrifluoromethylphenyl)-1-(3-indolyl)-3-pentanone Hydrochloride] | 0.015
CN(C)CCCC(=O)NC(Cc1c[nH]c2ccccc12)C(=O)CCc1cc(C(F)(F)F)cc(C(F)(F)F)c1 (stereo not drawn) [Example 17, 5-(3,5-Bistrifluoromethylphenyl)-2-(4-(N,N-dimethylamino)butyramido)-1-(3-indolyl)-3-pentanone Hydrochloride] | 0.0004
CC(=O)NC(Cc1csc2ccccc12)C(CCc1cc(C(F)(F)F)cc(C(F)(F)F)c1)=NO (single isomer, unassigned) [14 (Isomer A), 2-Acetamido-1-(3-benzo[b]thienyl)-5-(3,5-bistrifluoromethylphenyl)-3-oximinopentane] | 0.2
CC(=O)NC(Cc1csc2ccccc12)C(=O)CCc1cc(C(F)(F)F)cc(C(F)(F)F)c1 (stereo not drawn) [Example 4, 2-Acetamido-1-(3-benzo[b]thienyl)-5-(3,5-bistrifluoromethylphenyl)-3-pentanone] | 0.02
CC(=O)NC(Cc1csc2ccccc12)C(O)CCc1cc(C(F)(F)F)cc(C(F)(F)F)c1 (single isomer, unassigned) [5 (Isomer B), 2-Acetamido-1-(3-benzo[b]thienyl)-5-(3,5-bistrifluoromethylphenyl)-3-pentanol] | 0.5
COC(C=Cc1cc(C(F)(F)F)cc(C(F)(F)F)c1)C(Cc1csc2ccccc12)NC(C)=O (single isomer, unassigned) [3 (Isomer B), 2-Acetamido-1-(3-benzo[b]thienyl)-5-(3,5-bistrifluoromethylphenyl)-3-methoxy-4-pentene] | 0.35
CN(C)CC(=O)NC(Cc1csc2ccccc12)C(=O)CCc1cc(C(F)(F)F)cc(C(F)(F)F)c1 (stereo not drawn) [Example 9, 1-(3-Benzo[b]thienyl)-5-(3,5-bistrifluoromethylphenyl)-2-(N,N-dimethylglycinamido)-3-pentanone Hydrochloride] | 0.03
CC(C)(C)OC(=O)NC(Cc1c[nH]c2ccccc12)C(=O)CCc1cc(C(F)(F)F)cc(C(F)(F)F)c1 (stereo not drawn) [Example 10, 5-(3,5-Bistrifluoromethylphenyl)-2-t-butyloxycarbonylamino-1-(3-indolyl)-3-pentanone] | 0.04
CC(=O)NC(Cc1csc2ccccc12)C(=O)C=Cc1cc(C(F)(F)F)cc(C(F)(F)F)c1 (stereo not drawn) [Example 1, 2-Acetamido-1-(3-benzo[b]thienyl)-5-(3,5-bistrifluoromethylphenyl)-4-penten-3-one] | 0.35

Further lines, results first:

IC50 [µM] | Structure (SMILES)
0.5 | COC(CCc1cc(C(F)(F)F)cc(C(F)(F)F)c1)C(Cc1csc2ccccc12)NC(C)=O (single isomer, unassigned) [6 (Isomer A), 2-Acetamido-1-(3-benzo[b]thienyl)-5-(3,5-bistrifluoromethylphenyl)-3-methoxypentane]
0.3 | CC(=O)NC(Cc1csc2ccccc12)C(CCc1cc(C(F)(F)F)cc(C(F)(F)F)c1)=NO (single isomer, unassigned) [14 (Isomer B), 2-Acetamido-1-(3-benzo[b]thienyl)-5-(3,5-bistrifluoromethylphenyl)-3-oximinopentane]
0.3 | CC(=O)NC(Cc1csc2ccccc12)C(O)C=Cc1cc(C(F)(F)F)cc(C(F)(F)F)c1 (single isomer, unassigned) [2 (Isomer B), 2-Acetamido-1-(3-benzo[b]thienyl)-5-(3,5-bistrifluoromethylphenyl)-4-penten-3-ol]
0.19 | CC(=O)NC(Cc1csc2ccccc12)C(O)CCc1cc(C(F)(F)F)cc(C(F)(F)F)c1 (single isomer, unassigned) [5 (Isomer A), 2-Acetamido-1-(3-benzo[b]thienyl)-5-(3,5-bistrifluoromethylphenyl)-3-pentanol]
0.03 | COC(CCc1cc(C(F)(F)F)cc(C(F)(F)F)c1)C(Cc1csc2ccccc12)NC(C)=O (single isomer, unassigned) [6 (Isomer B), 2-Acetamido-1-(3-benzo[b]thienyl)-5-(3,5-bistrifluoromethylphenyl)-3-methoxypentane]
0.002 | CC(CC(=O)NC(Cc1c[nH]c2ccccc12)C(=O)CCc1cc(C(F)(F)F)cc(C(F)(F)F)c1)c1ccccc1 (stereo not drawn) [Example 20, 5-(3,5-Bistrifluoromethylphenyl)-2-(3-phenylbutyramido)-1-(3-indolyl)-3-pentanone]
0.002 | O=C(NC(Cc1c[nH]c2ccccc12)C(=O)CCc1cc(C(F)(F)F)cc(C(F)(F)F)c1)C1CC1 (stereo not drawn) [Example 19, 5-(3,5-Bistrifluoromethylphenyl)-2-(cyclopropylcarboxamido)-1-(3-indolyl)-3-pentanone]
0.0006 | CN(C)CCCCC(=O)NC(Cc1c[nH]c2ccccc12)C(=O)CCc1cc(C(F)(F)F)cc(C(F)(F)F)c1 (stereo not drawn) [Example 18, 5-(3,5-Bistrifluoromethylphenyl)-2-(5-(N,N-dimethylamino)pentanamido)-1-(3-indolyl)-3-pentanone]

same assay, conditions: 125I-SP binding; cloned human NK1R expressed in COS or CHO; 1 hour at 4° C. or room temperature; cell prints μM in nM column

IC50 [µM] | Structure (SMILES)
> 1 | COC(C=Cc1cc(C(F)(F)F)cc(C(F)(F)F)c1)C(Cc1csc2ccccc12)NC(C)=O (single isomer, unassigned) [3 (Isomer A), 2-Acetamido-1-(3-benzo[b]thienyl)-5-(3,5-bistrifluoromethylphenyl)-3-methoxy-4-pentene]
